The source made the active and inactive calls.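 Rule for the calls: active = compounds lowering the signal whose fitted AC50 is at most twice their top tested dose; inconclusive = flat fit with 30 to 70% inhibition, or poor fit; inactive = the rest.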

This assay deals with Drosophila melanogaster bursicon receptor (rickets, LGR2). Put plainly: LGR2 bursicon receptor antagonists, dose response, cell-based, HEK293, CRE-luciferase, luminescence, dry powder (AID 977612). The settings on record: bursicon-stimulated, antagonist luminescence; for activity change, negative = inhibition: at 35 µM (top of the series).

Consider `CC(C)(C)c1ccc(-c2nc(-c3ccncc3)no2)cc1`, for which the “activity change, negative = inhibition” value was “inactive”.
In the case of `C[C@@H]1CCCCO[C@H](CN(C)C(=O)Nc2cccc3ccccc23)[C@@H](C)CN([C@H](C)CO)C(=O)c2cc(NC(=O)C3CCCCC3)ccc2O1`, the “activity change, negative = inhibition” value was “inactive”.
`C[C@@H]1CCCCO[C@@H](CN(C)C(=O)Nc2cccc3ccccc23)[C@H](C)CN([C@H](C)CO)C(=O)c2cc(NC(=O)C3CCCCC3)ccc2O1`: the “activity change, negative = inhibition” value was “inactive”.
With `C[C@H](CO)N1C[C@H](C)[C@H](CN(C)C(=O)Nc2ccccc2)OCCCC[C@H](C)Oc2ccc(NC(=O)C3CCCCC3)cc2C1=O`, the AC50 (commonly the concentration at which the activity in the assay is half-maximal) is 12.6 µM.
Still for that read-out and setting: then `C[C@H](CO)N1C[C@H](C)[C@H](CN(C)C(=O)Nc2ccc3c(c2)OCO3)OCCCC[C@H](C)Oc2ccc(NC(=O)NC3CCCCC3)cc2C1=O`, with 31 µM.
Consider `C[C@H]1CCCCO[C@@H](CN(C)S(=O)(=O)c2ccc(Cl)cc2)[C@@H](C)CN([C@@H](C)CO)C(=O)c2cc(NC(=O)NC3CCCCC3)ccc2O1`, for which the “activity change, negative = inhibition” value is “inactive”.
In the case of `C[C@@H]1CN([C@@H](C)CO)C(=O)c2cc(NC(=O)C3CCCCC3)ccc2O[C@@H](C)CCCCO[C@@H]1CN(C)C(=O)Nc1cccc2ccccc12`, the “activity change, negative = inhibition” value is “inactive”.
Regarding `C[C@H]1CCCCO[C@@H](CN(C)C(=O)Nc2ccc(C(F)(F)F)cc2)[C@@H](C)CN([C@@H](C)CO)C(=O)c2cc(NC(=O)CCC(F)(F)F)ccc2O1`, the AC50 is 31.7 µM.
For `C[C@@H]1CN([C@@H](C)CO)C(=O)c2cc(NC(=O)C3CCCCC3)ccc2O[C@@H](C)CCCCO[C@H]1CN(C)C(=O)Nc1cccc2ccccc12`, the AC50 is > 70 µM (inactive).
As to `C[C@H](CO)N1C[C@H](C)[C@H](CN(C)C(=O)Nc2ccc3c(c2)OCO3)OCCCC[C@H](C)Oc2ccc(NC(=O)C3CCCCC3)cc2C1=O`, the concentration at half-maximal activity (AC50) was 10.5 µM.
As to `C[C@H](CO)N1C[C@H](C)[C@H](CN(C)C(=O)Nc2cccc3ccccc23)OCCCC[C@H](C)Oc2ccc(NC(=O)c3ccccc3)cc2C1=O`, the AC50 was 22.8 µM.
For the compound `C[C@@H]1CCCCO[C@H](CN(C)C(=O)Nc2cccc3ccccc23)[C@H](C)CN([C@H](C)CO)C(=O)c2cc(NC(=O)C3CCCCC3)ccc2O1`, the “activity change, negative = inhibition” value is “inactive”.
As to `C[C@H](CO)N1C[C@H](C)[C@H](CN(C)C(=O)Nc2ccc(F)cc2)OCCCC[C@H](C)Oc2ccc(NC(=O)C3CCCCC3)cc2C1=O`, the half-maximal activity concentration (AC50) is 6.2 µM.
As for `C[C@H]1CCCCO[C@H](CN(C)C(=O)Nc2cccc3ccccc23)[C@@H](C)CN([C@@H](C)CO)C(=O)c2cc(NC(=O)C3CCCCC3)ccc2O1`, the “activity change, negative = inhibition” value was “inactive”.
For the compound `C[C@H](CO)N1C[C@H](C)[C@@H](CN(C)C(=O)Nc2cccc3ccccc23)OCCCC[C@H](C)Oc2ccc(NC(=O)C3CCCCC3)cc2C1=O`, the “activity change, negative = inhibition” value was “inactive”.
`COc1ccc(S(=O)(=O)N(C)C[C@@H]2OCCCC[C@H](C)Oc3ccc(NS(=O)(=O)c4ccc(Cl)cc4)cc3C(=O)N([C@@H](C)CO)C[C@@H]2C)cc1`: the AC50 was 19.1 µM.
On to `C[C@@H]1CCCCO[C@@H](CN(C)C(=O)Nc2cccc3ccccc23)[C@@H](C)CN([C@@H](C)CO)C(=O)c2cc(NC(=O)C3CCCCC3)ccc2O1`, for which the AC50 is > 70 µM (inactive).
Turning to `C[C@@H]1CCCCO[C@H](CN(C)C(=O)Nc2cccc3ccccc23)[C@@H](C)CN([C@@H](C)CO)C(=O)c2cc(NC(=O)C3CCCCC3)ccc2O1`, the AC50 was > 70 µM (inactive).
As to `C[C@@H]1CCCCO[C@@H](CN(C)C(=O)Nc2cccc3ccccc23)[C@H](C)CN([C@@H](C)CO)C(=O)c2cc(NC(=O)C3CCCCC3)ccc2O1`, the “activity change, negative = inhibition” value was “inactive”.
Regarding `COc1ccc(NC(=O)N(C)C[C@@H]2OCCCC[C@H](C)Oc3ccc(NC(=O)NC4CCCCC4)cc3C(=O)N([C@H](C)CO)C[C@@H]2C)cc1`, the AC50 is 30.8 µM.
For the compound `C[C@@H]1CCCCO[C@H](CN(C)C(=O)Nc2cccc3ccccc23)[C@H](C)CN([C@@H](C)CO)C(=O)c2cc(NC(=O)C3CCCCC3)ccc2O1`, the “activity change, negative = inhibition” value was “inactive”.
`C[C@H]1CCCCO[C@@H](CN(C)C(=O)Nc2ccc(F)cc2)[C@@H](C)CN([C@@H](C)CO)C(=O)c2cc(NC(=O)C3CCCCC3)ccc2O1`: the AC50 was 11.4 µM.
Consider `C[C@H](CO)N1C[C@H](C)[C@H](CN(C)C(=O)Nc2ccccc2)OCCCC[C@H](C)Oc2ccc(NC(=O)NC3CCCCC3)cc2C1=O`, for which the AC50 was 20.9 µM.
The same measure, in the same setting: the figure for `C[C@H](CO)N1C[C@H](C)[C@H](CN(C)C(=O)Nc2cccc3ccccc23)OCCCC[C@H](C)Oc2ccc(NC(=O)CCC(F)(F)F)cc2C1=O` is 13.1 µM.
Regarding `C[C@H](CO)N1C[C@H](C)[C@H](CN(C)C(=O)Nc2ccc(F)cc2)OCCCC[C@H](C)Oc2ccc(NC(=O)C3CC3)cc2C1=O`, the “activity change, negative = inhibition” value was “inactive”.
`C[C@@H]1CN([C@H](C)CO)C(=O)c2cc(NC(=O)C3CCCCC3)ccc2O[C@@H](C)CCCCO[C@H]1CN(C)C(=O)Nc1cccc2ccccc12`: the AC50 was > 70 µM (inactive).
As for `COc1ccc(NC(=O)N(C)C[C@@H]2OCCCC[C@H](C)Oc3ccc(NC(=O)C4CCCCC4)cc3C(=O)N([C@H](C)CO)C[C@@H]2C)cc1`, the AC50 was 10.1 µM.
For `C[C@H](CO)N1C[C@H](C)[C@H](CN(C)C(=O)Nc2ccc(F)cc2)OCCCC[C@H](C)Oc2ccc(NC(=O)C3CCOCC3)cc2C1=O`, the “activity change, negative = inhibition” value was “inactive”.
On to `C[C@H](CO)N1C[C@H](C)[C@H](CN(C)C(=O)Nc2ccc(F)cc2)OCCCC[C@H](C)Oc2ccc(NC(=O)NC3CCCCC3)cc2C1=O`, for which the concentration at half-maximal activity (AC50) was 21.4 µM.
Take `C[C@H](CO)N1C[C@H](C)[C@H](CN(C)C(=O)Nc2cccc3ccccc23)OCCCC[C@H](C)Oc2ccc(NC(=O)NC3CCCCC3)cc2C1=O`: the AC50 is 23.2 µM.
Take `C[C@@H]1CCCCO[C@@H](CN(C)C(=O)Nc2cccc3ccccc23)[C@@H](C)CN([C@H](C)CO)C(=O)c2cc(NC(=O)C3CCCCC3)ccc2O1`: the “activity change, negative = inhibition” value is “inactive”.
As to `CC(=O)Nc1ccc2c(c1)C(=O)N([C@H](C)CO)C[C@H](C)[C@H](CN(C)C(=O)Nc1ccc(F)cc1)OCCCC[C@H](C)O2`, the “activity change, negative = inhibition” value was “inactive”.
As to `C[C@H](CO)N1C[C@H](C)[C@H](CN(C)C(=O)Nc2ccccc2)OCCCC[C@H](C)Oc2ccc(NC(=O)CCC(F)(F)F)cc2C1=O`, the concentration at half-maximal activity (AC50) was 36.3 µM.
As for `C[C@@H]1CN([C@H](C)CO)C(=O)c2cc(NC(=O)C3CCCCC3)ccc2O[C@@H](C)CCCCO[C@@H]1CN(C)C(=O)Nc1cccc2ccccc12`, the AC50 was > 70 µM (inactive).
With `C[C@H](CO)N1C[C@H](C)[C@H](CN(C)C(=O)Nc2ccc(C(F)(F)F)cc2)OCCCC[C@H](C)Oc2ccc(NC(=O)CCC(F)(F)F)cc2C1=O`, the half-maximal activity concentration (AC50) was 15 µM.

The values are drawn from PubChem BioAssay AID977612 (Broad Institute, 2014).
